Key:
[1] = tested on: C. albicans strain CAI4 (ATCC MYA-684); experiment: in vitro bioassay of inhibitory activity against C. albicans yeast-to-mycelium transition; assay type: cell-based, Candida albicans; conditions: comparison within cis/trans pair, FIG. 2
Procedure: An in vitro bioassay of the inhibitory activity of the fatty acids of FIG. 2 against C. albicans yeast-to-mycelium transition was carried out.
C. albicans strain CAI4 (ATCC MYA-684) was incubated at 28° C. for 24 h with shaking in a glucose salts (GS) medium (5 g of glucose, 0.26 g of Na2HPO4.12H2O, 0.66 g of KH2PO4, 0.88 g of MgSO4.7H2O, 0.33 g of NH4Cl, 16 μg of biotin per liter) supplemented with 0.1 mg/ml of uridine.
All the C. albicans cells remained, in the yeast form under these conditions. The yeast cells were washed three times with GS medium before use and then were dispersed in GS medium to give a solution with a final OD600 of 1.0.
The test compounds set out in FIG. 2 were diluted to the indicated concentrations with GS medium and were added to 100 μl of the washed C. albicans culture in 96-well microtitre plates, mixed and incubated at 37° C. for 6 hours (h).
The percentages of yeast cells and germ tubes (filamentous form) were determined microscopically by counting about 300 cells from three replicates. Inhibitory activity was defined as the mole concentration that gave a minimum of 90% inhibition (IC90) relative to control.

C. albicans = conditions: cited from earlier work
C. albicans strain CAI4 [2] = experiment: toxic effect on yeast cell growth; assay type: cell-based, Candida albicans; conditions: for toxic effect on yeast cell growth: concentrations up to 1 mM
Procedure: (§1) A starter culture of C. albicans strain CAI4 was prepared by growing the fungus at a low temperature (28° C.) in GS medium to maintain the yeast cell morphology. […] The synthetic DSF was indistinguishable with the natural DSF in inhibition of germ tube formation.

C. albicans strain CAI4 [3] = experiment: yeast-to-mycelium conversion of a C. albicans culture at 37° C. with or without DSF; assay type: cell-based, Candida albicans
Procedure: as §1

Structure (SMILES): CC(C)CCCCCCC/C=C/C(=O)O [Compound 2, trans-11-methyl-2-dodecenoic acid]
- inhibitory activity of cis- and trans-isomer pairs compared [1]: identical inhibitory activity

Structure (SMILES): CC(C)=CCCC(C)=CCCC(C)=CC(=O)O [Compound 3, 3,7,11-trimethyl-2,6,10-dodecatrienoic acid]
- C. albicans germ tube (mycelium) formation (C. albicans): inhibits

Structure (SMILES): C=C(C)C1CC=C(C=O)CC1 (stereo not shown) [perillaldehyde]
- formation of filamentous structures of C. albicans (C. albicans): interfere with the formation of filamentous structures

Structure (SMILES): CC(C)=CCCC(C)=CCCC(C)=CCO [Farnesol]
- mycelial development of C. albicans (C. albicans; growth morphology assay and differentiation assay, activators L-proline, N-acetylglucosamine, serum): prevent mycelial development

Structure (SMILES): CC(C)CCCCCCC/C=C\C(=O)O [Compound 1, cis-11-methyl-2-dodecenoic acid]
- effect on yeast growth (C. albicans strain CAI4 [2]; FIGS. 3a and 3b): does not affect yeast growth
- toxic effect on yeast cell growth (C. albicans strain CAI4 [2]): not observed to have a toxic effect
- toxic effect on yeast cell growth (C. albicans strain CAI4 [2]; listed as DSF): No toxic effect
- inhibitory activity of cis- and trans-isomer pairs compared [1]: identical inhibitory activity
- yeast-to-mycelium transition (C. albicans strain CAI4 [3]; 30 μM, 37° C., within 6 hours, GS medium): completely abolished
- yeast-to-mycelium transition of a culture of Candida albicans (C. albicans strain CAI4 [3]; FIGS. 3a and 3b): inhibits
- inhibition of germ tube formation compared with the natural DSF (C. albicans strain CAI4 [3]; synthetic versus natural DSF): indistinguishable

Structure (SMILES): CCCCCCCCC/C=C\C(=O)O [Compound 7, cis-2-dodecenoic acid]
- inhibitory activity of cis- and trans-isomer pairs compared [1]: very similar or identical inhibitory activity

Structure (SMILES): C=C(C)C1CC=C(C)C(=O)C1 (stereo not shown) [Carvone]
- formation of filamentous structures of C. albicans (C. albicans): interfere with the formation of filamentous structures

Reference: patent US8748486B2, “Inhibitors of yeast filamentous growth and method of their manufacture” (priority 2003, dated 2014)
